From ChEMBL document CHEMBL3507680, “University of Dundee, Gates Library screen for HepG2 cell viability”

Assay: Human HepG2 cell viability assay in 384 well format
Assay type: toxicity, cell-based
Set-up: dose 125 nL, time 70.5 hour; cytotoxicity at 70.5 h: concentration not given beside the values
Conditions: HepG2 cells, read-out: Inhibition

SMILES | cytotoxicity at 70.5 h
CC(=O)N1CC(c2ncn(C(C)C)n2)c2cc(C(=O)NC3CC3)ccc21 (stereo unspecified) | 14.1%
COc1cccc(N2CC3(CCN(c4cnccn4)C3)CC2=O)c1 (stereo unspecified) | 13.8%
Cn1c2c(c(=O)n1C)CN(C(=O)c1ccco1)CCC2 | 12.8%
COCCN1CCCC12CCCN(c1ncccn1)C2 (stereo unspecified) | -2.34%
Cn1c2c(c(=O)n1C)CN(C(=O)c1ccsc1)CCC2 | -0.418%
O=C(c1cscn1)N1CCC2(CC1)CCN(S(=O)(=O)c1ccccc1)C2 | -8.17%
CC(=O)N1CC(c2ncn(C(C)C)n2)c2cc(C(=O)NC(C)C)ccc21 (stereo unspecified) | -4.9%
O=C(c1cscn1)N1CCC2(CCN(S(=O)(=O)c3ccccc3)C2)C1 (stereo unspecified) | -17.7%
COCCN1CCCC12CCCN(c1nncs1)C2 (stereo unspecified) | -8.64%
FC1(F)CCN(c2ccccc2)CC12CCN(c1ncccn1)C2 (stereo unspecified) | -1.34%
CCc1ncnc2c1CCN(c1ncc(F)cn1)CC2 | -7.64%
O=C(Cc1ccsc1)N1CCc2ccc(=O)n(CC3CC3)c2CC1 | -3.62%
Cn1nc(CN2CCOCC2)c2c1CN(C(=O)c1ccc[nH]1)C2 | 0.563%
CCS(=O)(=O)N1CCn2c(COCC3CCOCC3)cnc2C1C (stereo unspecified) | -5.13%
CCOCc1cncc2c1CCN(S(=O)(=O)c1ccccc1)C2 | -3.1%
CCCS(=O)(=O)N1C[C@@H]2COC[C@@H](Cc3nc(C)no3)[C@@H]2C1 | -1.7%
O=C(c1ccc[nH]1)N1CC2(CCN(c3ncccn3)C2)C1 | 1.3%
CC(C)CC(=O)N1CCN(C(=O)NC(C)C)CC2(CC(=O)N(C)C2)C1 (stereo unspecified) | -18.5%
O=C(C1CCOCC1)N1CCO[C@@H]2[C@@H](OCc3ccncc3)CC[C@@H]21 | -22.7%
CCS(=O)(=O)N1CCC2(CC1)CN(c1cncnc1)C(=O)CO2 | -15.9%
Cc1cccc(C(=O)N2CC[C@H]3C[C@@H](C)O[C@@H]3C2)n1 | -19.7%
O=C(C1CCOCC1)N1CCO[C@H]2[C@H](OCC3CC3)CC[C@@H]21 | 2.42%
COCC(=O)N1CCN(C(=O)NC(C)C)CC2(CC(=O)N(C)C2)C1 (stereo unspecified) | 9.18%
Cc1noc([C@H]2CC[C@@H]3[C@@H](CCN3S(=O)(=O)C3CC3)O2)n1 | -3.57%
COCC1COCCC12CCN(C(=O)CC1Cc3ccccc3C1)CC2 (stereo unspecified) | 0.913%
COCC1CN(C(=O)Cc2cccs2)Cc2nnn(CC3CC3)c21 (stereo unspecified) | 2.3%

SMILES | cytotoxicity at 70.5 h
Cc1oncc1C(=O)N1CC[C@H]2[C@H]1CCN2Cc1ccccn1 | -3.13%
COCC1COCCC12CCN(C(=O)Cc1ccc(F)cc1)CC2 (stereo unspecified) | -16.1%
O=C(c1cccs1)N1CCN(CC2CC2)c2ncccc2C1 | -21%
Cc1noc([C@H]2COC[C@H]3CN(C(=O)Cc4ccsc4)C[C@H]32)n1 | -20.1%
Cc1noc([C@H]2COC[C@H]3CN(C(=O)Cc4cccs4)C[C@H]32)n1 | -12.6%
c1nc(N2CCOCC2)nc2c1COCC21CCN(CC2CC2)C1 (stereo unspecified) | -6.25%
CCn1nnc2c1C(COC)CN(C(=O)Cc1ccccn1)C2 (stereo unspecified) | -15.3%
O=C(C[C@@H]1COC[C@H]2CN(Cc3ccncc3)C[C@@H]12)N1CCCC1 | 11.8%
CCC(CC)C(=O)N1CCc2nc(N3CCCC3)nc(C)c2CC1 | -12.2%
CN1CCC2(CC1)C(=O)N(c1cccnc1)c1ccc(F)cc12 | -0.57%
O=C(c1cc[nH]n1)N1CCC(F)(F)C2(CCN(c3ccccn3)C2)C1 (stereo unspecified) | 11%
COCCN1C[C@@H]2CN(c3cc(OC)ncn3)CCC[C@]2(C(=O)O)C1 | 9.96%
O=C(c1c[nH]cn1)N1CCC(F)(F)C2(CCN(c3cnccn3)C2)C1 (stereo unspecified) | 0.139%
O=C(NC1CC1)N1Cc2[nH]nc(COc3cccnc3)c2C1 | -6.87%
COCCCN1CCCC12CCN(c1ncccn1)CC2 | -5.24%
O=C(c1cnccn1)N1CCC(F)(F)C2(CCN(c3ccccn3)C2)C1 (stereo unspecified) | -8.49%
CN(C)C(=O)CN1C[C@H]2CCN(Cc3ccccc3)CC[C@H]2S1(=O)=O | -8.74%
CC1c2ncc(COCC3CC3)n2CCN1C (stereo unspecified) | -4.63%
Cc1cnc(N2CCc3c(cnc(C)c3C(=O)O)C2)nc1 | -2.57%
Cc1cnc(N2CCc3ncnc(N4CCN(C)CC4)c3CC2)nc1 | -2.07%
CCn1cc2c(n1)CN(S(=O)(=O)c1cn(C)cn1)CC2COC (stereo unspecified) | -3.24%
CC(C)N1CCn2c(COCC3CCOCC3)cnc2C1C (stereo unspecified) | -1.85%
O=S(=O)(C1CC1)N1CCc2ncnc(-c3ccncc3)c2CC1 | -0.987%
Cn1ccnc1CN1CCC2(CCCN2c2ncccn2)CC1 | -0.454%
CN(C)Cc1nn(C)c2c1CN(C(=O)c1ccc[nH]1)C2 | -0.767%
FC(F)(F)c1ccnc(N2C[C@H]3CCN(c4cccnc4)C[C@H]3C2)n1 | -17.5%

SMILES | cytotoxicity at 70.5 h
CCN1CC2(CC1=O)CN(Cc1ccsc1)CCN(C(=O)C(C)C)C2 (stereo unspecified) | -15.8%
CCOCC1CN(CC2CC2)Cc2nn(CC3CC3)cc21 (stereo unspecified) | 6.53%
CN(C)C(=O)C1OC2(CCNCC2)c2ccccc21 (stereo unspecified) | -6.23%
O=C(NC[C@]12COC[C@H]1CN(Cc1nccs1)C2)c1ccsc1 | -3.53%
COC1COC2(CCN(Cc3ccc(Cl)cc3)CC2)C1 (stereo unspecified) | 6.16%
COCCN1CCC(c2nc3ccc(NC(C)C)cn3n2)CC1 | -17.4%
O=C(NCc1cccs1)[C@@H]1CC[C@@H]2[C@@H](CCN2c2ncccn2)O1 | -19.1%
COC1COC2(CCN(Cc3cccc(Cl)c3)CC2)C1 (stereo unspecified) | -9.84%
COC1COC2(CCN(Cc3cccc(C#N)c3)CC2)C1 (stereo unspecified) | -10.7%
O=C(NCc1cccs1)[C@@H]1CC[C@@H]2[C@@H](CCN2C2CCOCC2)O1 | -14.8%
CC1c2ncc(COc3cccnc3)n2CCN1C(=O)C1=CCCCC1 (stereo unspecified) | -14.2%
O=C(NCc1ccco1)[C@H]1CC[C@@H]2[C@@H](CCN2C2CCC2)O1 | -15.1%
COC1COC2(CCN(Cc3ccccc3C)CC2)C1 (stereo unspecified) | -13.2%
Cc1ccc2c(n1)N(Cc1csc(C)n1)CCN(C1CCOC1)C2 (stereo unspecified) | -5.88%
O=C(c1c[nH]cn1)N1CCC(F)(F)C2(CCN(c3ccccn3)C2)C1 (stereo unspecified) | -4.42%
FC1(F)CCNCC12CCN(c1cccnc1)C2 (stereo unspecified) | 13.7%
CC1c2ncc(COCC3CCOCC3)n2CCN1Cc1cccnc1 (stereo unspecified) | -4.06%
COCCN(C)C[C@@H]1CCC[C@@H]2CN(Cc3ccc(OC)nc3)C[C@@H]21 | 0.0071%
Cn1cc(CN2CCc3c(cnc(-c4ccccc4)c3C(=O)O)C2)cn1 | -5.39%
CCn1ncc2c1C(COCC1CC1)N(Cc1c(C)noc1C)CC2 (stereo unspecified) | 0.596%
Cc1noc(C)c1CN1CCO[C@H]2[C@H](Oc3ncccc3F)CC[C@@H]21 | -9.05%
CO[C@H]1CCN(C2CCC2)[C@@H]2CN(Cc3ccncc3)C[C@H]12 | -0.868%
CN1CCn2c(-c3cccc(F)c3)cnc2C12CCN(CC1CC1)CC2 | 4.4%
Cn1cc(CN2C[C@H](Oc3ncccc3F)[C@H]3OCCC[C@H]32)cn1 | -10.3%
